Experimental data: the supplement of paper PMC8671470

How the values were obtained:
Conditions in all cases: 72 h
[1] = test system: myeloid leukemia patient primary cells Pat.12; experiment: area under dose-response curve (viability, 1 nM-10 uM) (fraction (0-1)); higher = more sensitive
In short: (§1)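 Seventy compounds were pre-printed on 384-well plates at five tenfold concentrations between 1 and 10,000 nM, in duplicate. Thawed mononuclear cells purified by Ficoll from AML or CML patients were added at 10,000 cells/well in RPMI 1640 with 10% FBS for 72 h. Viability by CellTiter-Glo was normalised to DMSO and 10 μM proteasome-inhibitor wells. Where stated, area under the curve was taken from log-logistic fits made with the drc and PharmacoGx R packages, each fit having four parameters.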

[2] = test system: myeloid leukemia patient primary cells Pat.5; experiment: as above
In short: as §1

[3] = test system: myeloid leukemia patient primary cells Pat.6; experiment: as above
In short: as §1

[4] = test system: myeloid leukemia patient primary cells Pat.15; experiment: as above
In short: as §1

[5] = test system: myeloid leukemia patient primary cells Pat.4; experiment: as above
In short: as §1

[6] = test system: myeloid leukemia patient primary cells Pat.11; experiment: as above
In short: as §1

[7] = test system: myeloid leukemia patient primary cells Pat.8; experiment: as above
In short: as §1

[8] = test system: myeloid leukemia patient primary cells Pat.14; experiment: as above
In short: as §1

[9] = test system: myeloid leukemia patient primary cells Pat.2; experiment: as above
In short: as §1

[10] = test system: myeloid leukemia patient primary cells Pat.13; experiment: as above
In short: as §1

[11] = test system: myeloid leukemia patient primary cells Pat.7; experiment: as above
In short: as §1

[12] = test system: myeloid leukemia patient primary cells Pat.3; experiment: as above
In short: as §1

[13] = test system: myeloid leukemia patient primary cells Pat.1; experiment: as above
In short: as §1

[14] = test system: myeloid leukemia patient primary cells Pat.10; experiment: as above
In short: as §1

[15] = test system: myeloid leukemia patient primary cells Pat.9; experiment: as above
In short: as §1

ML-2 = test system: ML-2
In short: (§2)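 For the IC50, dose–response curves were fitted with a log-logistic model. The data came from fifteen myeloid leukaemia cell lines grown in RPMI 1640 at densities in the linear growth range and incubated in 384-well plates for 72 h at 37 °C under 5% CO2. Doses were five tenfold steps from 1 to 10,000 nM in duplicate, and luminescent ATP viability was normalised to vehicle and to a positive control at 10 µM before four-parameter fitting.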

BV-173 = test system: BV-173
In short: as §2

MOLM-13 = test system: MOLM-13
In short: as §2

KU-812 = test system: KU-812
In short: as §2

HEL = test system: HEL
In short: as §2

K-562 = test system: K-562
In short: as §2

Mono-Mac-6 = test system: Mono-Mac-6
In short: as §2

KG-1 = test system: KG-1
In short: as §2

KCL-22 = test system: KCL-22
In short: as §2

LAMA-84 = test system: LAMA-84
In short: as §2

HL-60 = test system: HL-60
In short: as §2

THP-1 = test system: THP-1
In short: as §2

MV4-11 = test system: MV4-11
In short: as §2

SHI-1 = test system: SHI-1
In short: as §2

[16] = test system: myeloid leukemia patient primary cells Pat.12; experiment: cell viability (% survival relative to DMSO control); higher = less cytotoxic
In short: as §1

[17] = test system: myeloid leukemia patient primary cells Pat.11; experiment: as above
In short: as §1

[18] = test system: myeloid leukemia patient primary cells Pat.13; experiment: as above
In short: as §1

[19] = test system: myeloid leukemia patient primary cells Pat.3; experiment: as above
In short: as §1

[20] = test system: myeloid leukemia patient primary cells Pat.1; experiment: as above
In short: as §1

[21] = test system: myeloid leukemia patient primary cells Pat.10; experiment: as above
In short: as §1

[22] = test system: myeloid leukemia patient primary cells Pat.9; experiment: as above
In short: as §1

Nc1nc(O)c2c(CCc3ccc(C(=O)N[C@@H](CCC(=O)O)C(=O)O)cc3)c[nH]c2n1 [Pemetrexed]
Conditions	IC50 (cell viability) [nM]	area under dose-response curve
BV-173	381	–
HEL	116	–
HL-60	617	–
K-562	1660	–
KCL-22	279	–
KG-1	> 10000	–
KU-812	239	–
LAMA-84	58.5	–
ML-2	336	–
MOLM-13	305	–
MV4-11	425	–
Mono-Mac-6	312	–
SHI-1	2320	–
THP-1	7020	–
[1]	–	< 0.0301
[2]	–	0.0877
[3]	–	< 0.0301
[4]	–	< 0.0301
[5]	–	< 0.0301
[6]	–	< 0.0301
[7]	–	< 0.0301
[8]	–	< 0.0301
[9]	–	< 0.0301
[10]	–	< 0.0301
[11]	–	< 0.0301
[12]	–	0.196
[13]	–	< 0.0301
[14]	–	< 0.0301
[15]	–	0.0468

cell viability [%]
Conditions	[16]	[17]	[18]	[19]	[20]	[21]	[22]
1 nM	> 100	> 100	91.5	> 100	> 100	85.8	94.3
10 nM	94.2	> 100	94.6	79.5	99.3	86	67.3
100 nM	95.4	> 100	90.8	76.8	> 100	51.4	50.7
1000 nM	99.1	> 100	82.7	50.9	96.8	81.3	> 100
10000 nM	97.1	93.9	82	45.7	84.1	59.3	32.6
